Here are results for 17 compounds from patent US9913843B2, “Protein kinase C inhibitors and uses thereof” (Rigel Pharmaceuticals, Inc., priority 2012, dated 2018).

This assay relates to PKC mediated IL-2 production in human primary T cells. As to the kind of experiment: IL-2 ELISA, human primary T cell, anti CD3+CD28+ (whole cell functional assay for PKC mediated IL-2 production). In kind it is cell-based. As to the method:
Human primary T cells were prepared as follows. Fresh PBMC's from All Cells (Cat # PB002) were re-suspended in RPMI (RPMI-1640 with L-Glutamine; Mediatech, Inc., Herndon Va., cat. #10-040-CM) with 10% FBS and seeded into flasks and incubated at 37° C. for 2 hours to allow the monocytes to adhere. The non-adherent cells were then centrifuged and re-suspended in RPMI medium containing 40 U/ml IL2 and seeded into a flask pre-coated with 1 μg/ml aCD3 and 5 ug/ml aCD28 (Anti-Human CD3, BD Pharmingen Catalog #555336, Anti-Human CD28, Beckman Coulter Catalog #IM1376). The cells were stimulated for 3-4 days, then transferred to a fresh flask and maintained in RPMI (RPMI-1640 with L-Glutamine; Mediatech, Inc., Herndon Va., cat. #10-040-CM) with 10% FBS and 40 U/ml IL-2.
Human primary T cells (100,000 cells per well) were pre-incubated with or without test compound in RPMI-1640 with L-Glutamine and 10% FBS for 1 hour at 37° C. Cells were then stimulated by transferring them to round-bottom 96-well plates pre-coated with 1 μg/ml aCD3 and 5 μg/ml aCD28. For counter assay, cells were instead stimulated by adding 8× stock solutions of PMA and ionomycin in RPMI-1640 with L-Glutamine and 10% FBS (for final concentrations of 0.5 ng/ml PMA and 0.1 μM ionomycin, both from Calbiochem). Cells were incubated at 37° C. for 24 hours before 100 μL supernatants were harvested for quantification of IL-2 by ELISA using Human IL-2 Duoset ELISA Kit from R and D Systems, Cat. # DY202E.
Compounds 1-156 were tested in a whole cell functional assay for PKC mediated IL-2 production as follows. Human primary T cell isolation and culture: Human primary T cells were prepared as follows. Whole blood was obtained from a healthy volunteer, mixed 1:1 with PBS, layered on to Ficoll Hypaque (Amersham Pharmacia Biotech, Piscataway, N.J., Catalog #17-1440-03) in 2:1 blood/PBS:ficoll ratio and centrifuged for 30 minutes at 4° C. at 1750 rpm. The cells at the serum: ficoll interface were recovered and washed twice with 5 volumes of PBS. These freshly isolated human peripheral blood mononuclear cells were cultured in Yssel's medium containing 40 U/ml IL2 in a flask pre-coated with 1 μg/ml aCD3 and 5 μg/ml aCD28 (Anti-Human CD3, BD Pharmingen Catalog #555336, Anti-Human CD28, Beckman Coulter Catalog #IM1376). The cells were stimulated for 3-4 days, then transferred to a fresh flask and maintained in RPMI (RPMI-1640 with L-Glutamine; Mediatech, Inc., Herndon Va., cat. #10-040-CM) with 10% FBS and 40 U/ml IL-2. The primary T-cells were then washed twice with PBS to remove the IL-2.
Primary T cell stimulation and IL2 ELISA: Human primary T cells (100,000 cells per well) were pre-incubated with or without test compound in Yssel's medium for 1 hour at 37° C. Cells were then stimulated by transferring them to round-bottom 96-well plates pre-coated with 1 μg/ml aCD3 and 5 μg/ml αCD28. For counter assay, cells were instead stimulated by adding 8× stock solutions of PMA and ionomycin in Yssels (for final concentrations of 0.5 ng/ml PMA and 0.1 uM ionomycin, both from Calbiochem). Cells were incubated at 37° C. for 24 hours before 100 μL supernatants were harvested for quantification of IL-2 by ELISA using Human IL-2 Duoset ELISA Kit from R and D Systems, Cat. # DY202E.
In general terms: An ELISA detects its analyte on a solid surface through an enzyme-linked reagent.

The mark [1] stands for this setting: 24 h, human primary T cells stimulated with anti-CD3 + anti-CD28, IL-2 by ELISA, read-out: IC50 for blocking IL-2 production.
[2] abbreviates: human primary T cells stimulated with anti-CD3 + anti-CD28, 24 h, IL-2 by ELISA, 8 pt, read-out: IL2 ELISA, Human primary T cell, anti-CD3 + CD28, 8 pt (IC50).

Read-outs that look alike come from different tables or passages of the source. Bounds are passed on as bounds.

Turning to `COCCOCCOc1cc(F)c(Nc2ncc(C#N)c(NC[C@@H]3CCCN4CCCC[C@H]34)n2)cc1-n1nnn(C)c1=O` [Compound 133, 2-((2-fluoro-4-(2-(2-methoxyethoxyl)ethoxy)-5-(4-methyl-5-oxo-4,5-dihydro-1H-tetrazol-1-yl)phenyl)amino)-4-((((1S,9aR)-octahydro-2H-quinolizin-1-yl)methyl)amino)pyrimidine-5-carbonitrile], the IC50 (in general, the point on the concentration scale where inhibition reaches its midpoint) under setting [1] was under 30000 nM and the half-maximal inhibitory concentration (IC50) under setting [2] turned out to be 992 nM.
Consider `Cn1nnnc1Oc1cc(Nc2ncc(F)c(NC[C@@H]3CCCN4CCCC[C@H]34)n2)c(F)cc1C1CC1` [Compound 28, N2-(5-(1-methyl-1H-tetrazol-5-yloxy)-4-cyclopropyl-2-fluorophenyl)-5-fluoro-N4-(((1S,9aR)-octahydro-1H-quinolizin-1-yl)methyl)pyrimidine-2,4-diamine], for which the IC50 was under 30000 nM under setting [1] and 1820 nM under setting [2].
As to `Cn1nnn(-c2cc(Nc3ncc(C#N)c(NC[C@@H]4CCCN5CCCC[C@H]45)n3)c(F)cc2OCC(C)(C)O)c1=O` [Compound 156, 2-((2-fluoro-4-(2-hydroxy-2-methylpropoxy)-5-(4-methyl-5-oxo-4,5-dihydro-1H-tetrazol-1-yl)phenyl)amino)-4-((((1S,9aR)-octahydro-2H-quinolizin-1-yl)methyl)amino)pyrimidine-5-carbonitrile], the IC50 under setting [1] is under 30000 nM and the IC50 under setting [2] was found to be 27.6 nM.
Consider `COc1ccc(Nc2ncc(N(C)C)c(NC[C@@H]3CCCN4CCCC[C@H]34)n2)cc1-n1nnnc1C` [Compound 90, N4-(((1S,9aR)-octahydro-1H-quinolizin-1-yl)methyl)-N2-(4-methoxy-3-(5-methyl-1H-tetrazol-1-yl)phenyl)-N5,N5-dimethylpyrimidine-2,4,5-triamine], for which the half-maximal inhibitory concentration (IC50) is under 30000 nM under setting [1] and 9820 nM under setting [2].
Consider `Cc1ccc(Nc2nccc(NC[C@@H]3CCCN4CCCC[C@H]34)n2)cc1-n1cnnn1` [Compound 47, N4-(((1S,9aR)-octahydro-1H-quinolizin-1-yl)methyl)-N2-(4-methyl-3-(1H-tetrazol-1-yl)phenyl)pyrimidine-2,4-diamine], for which the IC50 under setting [1] is under 30000 nM and the IC50 under setting [2] stood at 649 nM.
The like results for `Cn1nnn(-c2cc(Nc3ncc(C#N)c(NC[C@@H]4CCCN5CCCC[C@H]45)n3)c(F)cc2OC(C)(C)CO)c1=O` [Compound 151, 2-((2-fluoro-4-((1-hydroxy-2-methylpropan-2-yl)oxy)-5-(4-methyl-5-oxo-4,5-dihydro-1H-tetrazol-1-yl)phenyl)amino)-4-((((1S,9aR)-octahydro-2H-quinolizin-1-yl)methyl)amino)pyrimidine-5-carbonitrile] were, in that order, under 30000 nM and 306 nM.
As for `Cn1nnn(-c2cc(Nc3nccc(NC[C@@H]4CCCN5CCCC[C@H]45)n3)c(F)cc2C2CC2)c1=O` [Compound 48, 1-(5-(4-(((1S,9aR)-octahydro-1H-quinolizin-1-yl)methylamino)pyrimidin-2-ylamino)-2-cyclopropyl-4-fluorophenyl)-4-methyl-1H-tetrazol-5(4H)-one], the IC50 reads like this: under setting [1], under 30000 nM; under setting [2], 3820 nM.
On the same counts, the results for `N#Cc1cc(Nc2nccc(NC[C@@H]3CCCN4CCCC[C@H]34)n2)c(F)cc1C1CC1` [Compound 56, 5-(4-(((1S,9aR)-octahydro-1H-quinolizin-1-yl)methylamino)pyrimidin-2-ylamino)-2-cyclopropyl-4-fluorobenzonitrile] are under 30000 nM and 3800 nM.
On the same counts, the results for `COc1ccc(Nc2ncc(C#N)c(NC[C@@H]3CCCN4CCCC[C@H]34)n2)cc1-n1nnnc1C` [Compound 113, 4-(((1S,9aR)-octahydro-1H-quinolizin-1-yl)methylamino)-2-(4-methoxy-3-(5-methyl-1H-tetrazol-1-yl)phenylamino)pyrimidine-5-carbonitrile] are under 30000 nM and 18 nM.
On to `Cn1nnn(-c2cc(Nc3ncc(F)c(NC[C@@H]4CCCN5CCCC[C@H]45)n3)c(F)cc2OC(C)(C)CO)c1=O` [Compound 148, 1-(4-fluoro-5-((5-fluoro-4-((((1S,9aR)-octahydro-2H-quinolizin-1-yl)methyl)amino)pyrimidin-2-yl)amino)-2-((1-hydroxy-2-methylpropan-2-yl)oxy)phenyl)-4-methyl-1,4-dihydro-5H-tetrazol-5-one], for which the IC50 reads like this: under setting [1], under 30000 nM; under setting [2], 1590 nM.
Consider `Cc1ccc(Nc2ncc(C)c(NC[C@@H]3CCCN4CCCC[C@H]34)n2)cc1C#N` [Compound 67, 5-(4-(((1S,9aR)-octahydro-1H-quinolizin-1-yl)methylamino)-5-methylpyrimidin-2-ylamino)-2-methylbenzonitrile], for which the half-inhibitory concentration (IC50) by setting is: under setting [1], under 30000 nM; under setting [2], 1080 nM.
Regarding `COc1ccc(Nc2ncc(F)c(NC[C@@H]3CCCN4CCCC[C@H]34)n2)cc1-c1cnco1` [Compound 22, 5-fluoro-N4-(((1S,9aR)-octahydro-1H-quinolizin-1-yl)methyl)-N2-(4-methoxy-3-(oxazol-5-yl)phenyl)pyrimidine-2,4-diamine], the IC50 is under 30000 nM under setting [1] and 697 nM under setting [2].
With `Fc1cc(C2CC2)c(-n2cnnn2)cc1Nc1ncc(F)c(NC[C@@H]2CCCN3CCCC[C@H]23)n1` [Compound 2, N2-(4-cyclopropyl-2-fluoro-5-(1H-tetrazol-1-yl)phenyl)-5-fluoro-N4-(((1S,9aR)-octahydro-1H-quinolizin-1-yl)methyl)pyrimidine-2,4-diamine], the IC50 is under 30000 nM under setting [1] and 372 nM under setting [2].
On to `OCCOc1ccc(Nc2ncc(Cl)c(NC[C@@H]3CCCN4CCCC[C@H]34)n2)cc1-n1cnnn1` [Compound 139, 2-(4-((5-chloro-4-((((1S,9aR)-octahydro-2H-quinolizin-1-yl)methyl)amino)pyrimidin-2-yl)amino)-2-(1H-tetrazol-1-yl)phenoxy)ethan-1-ol], for which the IC50 was under 30000 nM under setting [1] and 17.5 nM under setting [2].
On to `COc1cc(Nc2ncc(C(F)(F)F)c(NC[C@@H]3CCCN4CCCC[C@H]34)n2)cc(OC)c1` [Compound 111, 5-(trifluoromethyl)-N4-(((1S,9aR)-octahydro-1H-quinolizin-1-yl)methyl)-N2-(3,5-dimethoxyphenyl)pyrimidine-2,4-diamine], for which the IC50 runs as follows: under setting [1], under 30000 nM; under setting [2], 12500 nM.
As for `C[C@H](O)COc1cc(F)c(Nc2ncc(F)c(NC[C@@H]3CCCN4CCCC[C@H]34)n2)cc1-n1nnn(C)c1=O` [Compound 149, 1-(4-fluoro-5-((5-fluoro-4-((((1S,9aR)-octahydro-2H-quinolizin-1-yl)methyl)amino)pyrimidin-2-yl)amino)-2-((S)-2-hydroxypropoxy)phenyl)-4-methyl-1,4-dihydro-5H-tetrazol-5-one], the IC50 runs as follows: under setting [1], under 30000 nM; under setting [2], 266 nM.
With `CC1(C)Oc2ccc(Nc3ncc(F)c(NC[C@@H]4CCCN5CCCC[C@H]45)n3)cc2-n2nnnc21` [Compound 98, N2-(4,4-dimethyl-4H-5-oxa-1,2,3,9b-tetraaza-cyclopenta[a]naphthalen-8-yl)-5-fluoro-N4-(((1S,9aR)-octahydro-1H-quinolizin-1-yl)methyl)-pyrimidine-2,4-diamine], the IC50 runs as follows: under setting [1], under 30000 nM; under setting [2], 77.4 nM.
